Target: T1, Dual specificity protein phosphatase 1 (Homo sapiens, UniProt P28562)
T1 sequence (P28562 whole entry): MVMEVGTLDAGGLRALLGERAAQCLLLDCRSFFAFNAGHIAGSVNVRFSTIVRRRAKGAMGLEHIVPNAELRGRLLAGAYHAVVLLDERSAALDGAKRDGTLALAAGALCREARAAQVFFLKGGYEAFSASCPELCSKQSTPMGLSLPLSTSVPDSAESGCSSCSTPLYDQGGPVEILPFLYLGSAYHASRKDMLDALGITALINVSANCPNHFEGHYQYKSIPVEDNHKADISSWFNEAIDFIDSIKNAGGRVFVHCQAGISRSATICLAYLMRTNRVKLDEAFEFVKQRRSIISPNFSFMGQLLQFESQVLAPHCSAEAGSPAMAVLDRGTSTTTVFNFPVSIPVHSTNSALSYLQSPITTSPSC
Assay: MKP-1 phosphatase inhibitor potency, dose response, biochemical, in vitro, confirmation (AID 551)
Conditions: pH 7; 22 °C

IC50 | Compound
27.1 µM | CC1=C(/C=C/C(C)=C/C=C/C(C)=C/C(=O)O)C(C)(C)CCC1 [ALL-TRANS-RETINOIC ACID]
> 50 µM | O=C(c1ccc(-c2ccccc2)cc1)N1CCN(Cc2ccccn2)CC1 [(4-phenylphenyl)-[4-(2-pyridinylmethyl)-1-piperazinyl]methanone]
> 50 µM | Cc1nn2c(-c3cccc(NC(=O)c4ccco4)c3)nnc2c2ccccc12 [MLS000097401]
> 50 µM | O=C(c1n[nH]c(=O)c2ccccc12)N1CCN(C2c3ccccc3-c3ccccc32)CC1 [4-[[4-(9H-fluoren-9-yl)-1-piperazinyl]-oxomethyl]-2H-phthalazin-1-one]
15 µM | CCOc1ccc(-c2cc3nc(C4CCN(C(=O)OC(C)(C)C)CC4)c(C(=O)O)cn3n2)cc1 [2-(4-ethoxyphenyl)-5-[1-[(2-methylpropan-2-yl)oxy-oxomethyl]-4-piperidinyl]-6-pyrazolo[1,5-a]pyrimidinecarboxylic acid]
> 50 µM | CCOC(=O)N1CCC(NC(=O)c2cccn3c(=O)c4cc(Br)ccc4nc23)CC1 [4-[(2-bromo-11-keto-pyrido[2,1-b]quinazoline-6-carbonyl)amino]piperidine-1-carboxylic acid ethyl ester]
7.66 µM | O=C(OC1CCCCC1)c1ccc2c(c1)C1C=CCC1C(C(=O)O)N2 (configuration not stated) [SMR000019385]
> 50 µM | CC12CC(NC(=O)N1c1ccc(C(=O)N3CCN(c4ccc(F)cc4)CC3)cc1)c1ccccc1O2 (configuration not stated) [SMR000026617]
> 50 µM | CCCCn1c(SCC(=O)c2ccc(OC)cc2OC)nc2cc(S(N)(=O)=O)ccc21 [1-butyl-2-[2-(2,4-dimethoxyphenyl)-2-oxidanylidene-ethyl]sulfanyl-benzimidazole-5-sulfonamide]
17 µM | COc1ccc(Cn2c(C)nc3c(c2=O)c2nc4ccccc4nc2n3Cc2ccco2)cc1 [MLS000079944]
> 50 µM | CC1CCN(S(=O)(=O)c2ccc3c(c2)c(=O)c(C(=O)NC2CCCC2)cn3C)CC1 [MLS000095109]
> 50 µM | CCCn1nnc(NC(=O)c2cc(Br)cc(Br)c2OC)n1 [3,5-bis(bromanyl)-2-methoxy-N-(2-propyl-1,2,3,4-tetrazol-5-yl)benzamide]
> 50 µM | CCSCCOC(=O)C1=C(C)N=C2CCCC(=O)C2C1c1coc2ccccc2c1=O (configuration not stated)
36.1 µM | CCOc1cc(/C=C(/C#N)c2ccc(F)cc2)ccc1OCc1ccc(C(=O)O)o1 [5-[[4-[(E)-2-cyano-2-(4-fluorophenyl)ethenyl]-2-ethoxyphenoxy]methyl]furan-2-carboxylic acid]

Compound | IC50
CCn1nc(-c2cccs2)nc2c(=O)n(C)c(=O)nc1-2 [1-ethyl-6-methyl-3-thiophen-2-yl-pyrimido[5,4-e][1,2,4]triazine-5,7-dione] | 0.158 µM
CCCCNC(=O)c1c(N)n(CCCOC)c2nc3ccccc3nc12 [2-amino-N-butyl-1-(3-methoxypropyl)-3-pyrrolo[3,2-b]quinoxalinecarboxamide] | 26.2 µM
COCCCn1c(N)c(C(=O)NCCC(C)C)c2nc3ccccc3nc21 [MLS000041744] | 26.2 µM
